In patent US20250382250A1, “STILBENE DERIVATIVE AS AHR AGONIST AND USE THEREOF” (NANJING GRITPHARMACO., LTD., priority 2022, published 2025):
Marks after values point to notes of the source that are not given here.

Tests used:
AhR = biological target: T1, AhR (Homo sapiens, UniProt P35869); experiment: AhR agonism luciferase reporter gene assay in transfected HepG2 cells; format: cell-based; conditions: 16 h, ratio of treatment group to blank
T1 construct: expressed in transfected cells; host or cells: HepG2
T1 sequence (P35869 11-848): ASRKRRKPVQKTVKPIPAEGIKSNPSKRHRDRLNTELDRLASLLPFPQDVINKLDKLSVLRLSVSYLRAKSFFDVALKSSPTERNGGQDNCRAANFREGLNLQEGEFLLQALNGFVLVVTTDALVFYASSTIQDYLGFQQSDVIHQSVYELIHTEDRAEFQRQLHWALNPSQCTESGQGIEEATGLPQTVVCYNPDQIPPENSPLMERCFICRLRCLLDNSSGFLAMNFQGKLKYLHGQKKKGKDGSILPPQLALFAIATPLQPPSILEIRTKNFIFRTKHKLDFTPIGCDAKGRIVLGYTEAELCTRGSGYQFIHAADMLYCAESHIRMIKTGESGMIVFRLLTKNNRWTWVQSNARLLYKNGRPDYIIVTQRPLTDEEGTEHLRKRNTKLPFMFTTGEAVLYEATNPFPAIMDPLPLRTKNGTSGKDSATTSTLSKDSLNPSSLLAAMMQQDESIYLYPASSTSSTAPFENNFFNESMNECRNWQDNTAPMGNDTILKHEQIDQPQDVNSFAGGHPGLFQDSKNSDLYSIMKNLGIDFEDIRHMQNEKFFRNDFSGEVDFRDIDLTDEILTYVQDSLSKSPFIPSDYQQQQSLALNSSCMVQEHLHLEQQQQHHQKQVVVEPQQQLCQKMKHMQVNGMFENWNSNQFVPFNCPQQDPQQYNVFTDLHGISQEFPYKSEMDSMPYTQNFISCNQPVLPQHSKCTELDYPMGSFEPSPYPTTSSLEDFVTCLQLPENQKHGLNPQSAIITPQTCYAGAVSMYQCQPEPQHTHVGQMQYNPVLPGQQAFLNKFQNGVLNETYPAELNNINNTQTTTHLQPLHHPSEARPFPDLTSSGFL
Experimental: When the cell confluence reached 80%, the culture medium was replaced with a fresh one, and the transfection working solution was added for transfection overnight. The formula of the working solution is as follows: 1 mL of Opti-MEM+7.5 μg of pCMV-AHR+7.5 μg of pTK-3×DRE-Luc+30 μL of lipo6000. • (2) Cell plating: The transfected cells were digested, prepared into a cell suspension at a concentration of 3×10^5 cells/mL, and then plated on a 96-well plate at 100 µL/well for adherent culture overnight. • (3) Formulation
The prepared drug-containing culture media and a blank culture medium were added to the 96-well plate described above at 100 μL/well.

atopic dermatitis = experiment: DNFB-induced atopic dermatitis mouse model (AD Score); format: in vivo, BALB/C mice; parameters: scale not given here; conditions: DNFB mice
Experimental: 56 clean-grade BALB/C mice aged 6-8 weeks were subjected to 5 days of adaptive feeding and then randomized into 7 groups of 8 mice each: • A. Blank control group • B. Modeling+solvent group • C. Modeling+blank matrix group • D. Modeling+positive drug mometasone furoate group • E. Modeling+1 wt % of benvitimod group • F. […] The animal experiments were conducted in accordance with the Experimental Animal Feeding, Management and Use Guidelines of China Pharmaceutical University and in compliance with animal study ethics and regulations. As shown in the above procedures, the solvent control or DNFB was given in the morning for modeling; from day 5, the test compound ointment was administered once every afternoon at 50 mg/dose evenly on the skin surface. The specific administration method is as shown above; Specific procedures: […] Severity of atopic dermatitis was scored using the AD Score criteria The severity of the appearance of dermatitis was evaluated based on 4 indicators: A. erythema/bleeding; B. dryness; C. effusion/crusting; D. edema.

Compound | AhR receptor agonistic fold (AhR; drug concentration 0.1 μM) [fold] | AhR receptor agonistic fold (AhR; drug concentration 1 μM) [fold] | also measured
O=Cc1c2[nH]c3ccccc3c2cc2[nH]c3ccccc3c12 [Reference 3#, FICZ, reference compound] | 2.3 ± 0.2 | 4.3 ± 0.2 | 
Oc1cc(/C=C/c2ccc(F)c(F)c2)cc(O)c1C1CCCCC1 [Compound 11, (E)-2-cyclohexyl-5-(3,4-difluorostyryl)-1,3-benzenediol] | 6.6 ± 1.6 | 20.0 ± 1.6 | 
Oc1cc(/C=C/c2ccccc2Cl)cc(O)c1C1CCCCC1 [Compound 9, (E)-2-cyclohexyl-5-(2-chlorostyryl)-1,3-benzenediol] | 4.9 ± 1.9 | 17.1 ± 2.5 | 
Oc1cc(/C=C/c2ccccc2)cc(O)c1C1CCCC1 [Compound 1, (E)-2-cyclopentyl-5-styryl-1,3-benzenediol] | 3.1 ± 0.3 | 12.1 ± 0.4 | 
CC(C)c1c(O)cc(/C=C/c2ccc(F)cc2)cc1O [Reference 2#, reference compound] | 2.5 ± 1.1 | 7.8 ± 1.0 | 
C[C@@H]1C[C@H]2[C@@H]3CCC4=CC(=O)C=C[C@]4(C)[C@@]3(Cl)[C@@H](O)C[C@]2(C)[C@@]1(OC(=O)c1ccco1)C(=O)CCl [Mometasone furoate, mometasone furoate, reference compound] |  |  | Back AD score (atopic dermatitis; day 0, before ointment treatment (from day 5)): 0.00 ± 0.00; Back AD score (atopic dermatitis; day 4, before ointment treatment (from day 5)): 3.50 ± 0.61; Back AD score (atopic dermatitis; day 6, ointment 50 mg once daily from day 5 (1.2 wt % 2#/6#, 1 wt % benvitimod)): 5.38 ± 1.65**^b; Back AD score (atopic dermatitis; day 8, ointment 50 mg once daily from day 5 (1.2 wt % 2#/6#, 1 wt % benvitimod)): 6.50 ± 1.22**^a; Back AD score (atopic dermatitis; day 10, ointment 50 mg once daily from day 5 (1.2 wt % 2#/6#, 1 wt % benvitimod)): 5.00 ± 1.00**^aabb
Oc1cc(/C=C/c2ccc(Br)cc2)cc(O)c1C1CCCCC1 [Compound 8, (E)-2-cyclohexyl-5-(4-bromostyryl)-1,3-benzenediol] | 5.2 ± 0.2 | 11.8 ± 0.7 | 
Oc1cc(/C=C/c2ccc(Cl)cc2)cc(O)c1C1CCCCC1 [Compound 7, (E)-2-cyclohexyl-5-(4-chlorostyryl)-1,3-benzenediol] | 5.1 ± 0.4 | 9.5 ± 0.5 | 
Oc1cc(/C=C/c2ccc(Br)cc2)cc(O)c1C1CCCC1 [Compound 4, (E)-2-cyclopentyl-5-(4-bromostyryl)-1,3-benzenediol] | 7.8 ± 0.1 | 14.4 ± 0.3 | 
Oc1cc(/C=C/c2cccc(Cl)c2)cc(O)c1C1CCCCC1 [Compound 10, (E)-2-cyclohexyl-5-(3-chlorostyryl)-1,3-benzenediol] | 4.5 ± 1.0 | 14.7 ± 2.3 | 
Oc1cc(/C=C/c2ccccc2)cc(O)c1C1CCCCC1 [Compound 5, (E)-2-cyclohexyl-5-styryl-1,3-benzenediol] | 5.8 ± 0.3 | 16.6 ± 0.7 | 
Oc1cc(/C=C/c2cccc(F)c2)cc(O)c1C1CCCC1 [Compound 16, (E)-2-cyclopentyl-5-(3-fluorostyryl)-1,3-benzenediol] | 6.0 ± 0.8 | 18.5 ± 2.9 | 
Oc1cc(/C=C/c2cc(F)cc(F)c2)cc(O)c1C1CCCCC1 [Compound 13, (E)-2-cyclohexyl-5-(3,5-difluorostyryl)-1,3-benzenediol] | 9.2 ± 1.2 | 14.6 ± 0.9 | 
Oc1cc(/C=C/c2cccc(F)c2F)cc(O)c1C1CCCCC1 [Compound 12, (E)-2-cyclohexyl-5-(2,3-difluorostyryl)-1,3-benzenediol] | 6.8 ± 0.1 | 17.1 ± 0.6 | 
Oc1cc(/C=C/c2ccc(Cl)cc2)cc(O)c1C1CCCC1 [Compound 3, (E)-2-cyclopentyl-5-(4-chlorostyryl)-1,3-benzenediol] | 4.0 ± 0.5 | 18.2 ± 0.6 | 
Oc1cc(/C=C/c2cc(F)c(F)c(F)c2)cc(O)c1C1CCCCC1 [Compound 15, (E)-2-cyclohexyl-5-(3,4,5-trifluorostyryl)-1,3-benzenediol] | 7.5 ± 1.8 | 22.2 ± 2.8 | 
Oc1cc(/C=C/c2ccc(F)c(F)c2F)cc(O)c1C1CCCCC1 [Compound 14, (E)-2-cyclohexyl-5-(2,3,4-trifluorostyryl)-1,3-benzenediol] | 13.1 ± 2.4 | 20.8 ± 1.4 | 
